Reference: patent US4785017A, “3,4-dihydro-2H-1-benzopyran derivatives” (Hoffmann-La Roche Inc., priority 1984, dated 1988)

Assays:
[1] = system: leukotriene D4 induced bronchoconstriction; experiment: Oral Testing of Leukotriene Antagonists, leukotriene D4 challenge; type: in vivo, guinea pig (Hartley strain, Charles River); conditions: 10 mg/kg by the oral route, two hours prior to challenge with leukotriene D4
Description: (c) Oral Testing of Leukotriene Antagonists
Male guinea pigs (Hartley strain, Charles River) weighing 400 to 600 g were anesthetized with urethane (2 g/kg) intraperitoneally and a polyethylene cannula was inserted into the jugular vein for intravenous drug administration. Tracheal pressure (cm water) was recorded from a Statham pressure transducer. After surgical preparation of the animals, a period of time was allowed for spontaneous breathing to stabilize. […] Two minutes later, spontaneous breathing was arrested with succinylcholine chloride (1.2 mg/kg, i.v.) and the animals ventilated with a Harvard (Model #680) small animal respirator set at 40 breaths per minute and 4.0 cc stroke volume. The animals were challenged with a maximum constrictory does of either leukotriene C4 or leukotriene D4 or leukotriene E4 (25 ug/kg, i.v.) at 5 minutes. Control vehicle or test drug (adjusted to an alkaline pH where necessary for drug solubilization) was administered (10 mg/kg, p.o.) two hours prior to challenge with leukotriene. In order to determine the ID50 for a test drug, the dose is varied from 10 mg/kg, p.o. to 100, 50, 30, 20, 5, 3 and 1 mg/kg, p.o.
In order to determine oral duration of action, the time between exposure to test drug and challenge with leukotriene is varied.

[2] = system: SRS-A-induced constriction of the guinea pig ileum; experiment: Guinea Pig Ileum, In Vitro: inhibition of SRS-A-induced constriction (SRS-A antagonism); conditions: SRS-A antagonism; SRS-A at EC50, 37° C., with atropine sulfate and pyrilamine maleate; read-out: In vitro Guinea Pig ileum IC50
Description: (a) Guinea Pig Ileum, In Vitro:
The guinea pig ileum bioassay system has been described by Orange Austen, Adv. Immunol. […] A 1.5 cm segment is removed from animals weighing 300-400 g and suspended in an organ bath containing 10 ml of Tyrodes solution with 10^-6 M atropine sulfate and 10^-6 M pyrilamine maleate. […] The SRS-A utilized in this screen is obtained by challenging chopped lung fragments from actively sensitized guinea pigs with egg albumin, in vitro. A dose-response curve to SRS-A challenge is established for the ileum. […] The drug concentration which inhibits, by 50%, the SRS-A-induced constriction of the guinea pig ileum is determined.

[3] = system: leukotriene E4 induced bronchoconstriction; experiment: Guinea Pig Bronchoconstriction, In Vivo (Aerosol), leukotriene E4 challenge; design: species or system guinea pig (Hartley strain); conditions: five minute aerosol exposure (% w/v aerosol solution); maximum constrictory dose of leukotriene E4 i.v.; propanolol pretreatment
Description: (b) Guinea Pig Bronchoconstriction, In Vivo (Aerosol):
Male guinea pigs (Hartley strain) weighing 300 to 500 g are anesthetized with urethane (2 g/kg) intraperitoneally and a polyethylene cannula is inserted into the jugular vein for drug administration. Tracheal pressure is recorded from a cannula inserted in the trachea and connected to a Statham pressure transducer. After surgical preparation of the animals, a period of time is allowed for pulmonary functions to stabilize. The test compound is administered according to the following protocol. Propanolol (0.1 mg/kg) is administered intravenously while the animals breathed spontaneously. Five minutes thereafter, the animals are exposed for a five minute period to a 1% (w/v) aerosol solution of test compound (adjusted to an alkaline pH where necessary for drug solubilization) or to distilled water of the appropriate pH (for control purposes). A Monaghan (Model 750) ultrasonic nebulizer is used to administer all test compounds by inhalation. The nebulizer ultrasonic frequency is adjusted to produce particles in the 1-8μ diameter range (average 3μ). Aqueous solutions are prepared freshly and introduced into the chamber of the nebulizer. The output of the nebulizer is made available to the animal by directing a bias flow of aerosol through a Y tube connected to the tracheal cannula. At the end of the exposure period, the animals are paralyzed with succinylcholine (1.2 mg/kg, i.v.) and mechanically respirated (Harvard rodent respirator) at 40 breaths/minute and 2.5 cc tidal volume. Animals are then challenged with a maximum constrictory dose of leukotriene E4 delivered intravenously 30 seconds after administration of the succinylcholine.
The change (cm H2 O) between pre and peak ventilatory pressure readings averaged for three control animals and five drug treated animals. The percent inhibition is calculated from the following formula: [formula] When various drug concentrations are tested, the percent inhibition at each concentration is plotted as log concentration (abscissa) versus percent inhibition (ordinate) and the IC50 is determined from linear regression analysis.

[4] = system: leukotriene D4 induced bronchoconstriction; experiment: Guinea Pig Bronchoconstriction, In Vivo (Aerosol), leukotriene D4 challenge; design: species or system guinea pig (Hartley strain); conditions: aerosol assay with leukotriene E4 replaced with leukotriene D4

Compound	inhibition of leukotriene D4 induced bronchoconstriction [1] [%]	IC50 [2] [nM]	Guinea Pig Bronchoconstriction In vivo aerosol - IC50(%) [3] [%]	IC50 value in inhibiting bronchoconstriction (aerosol) [4] [%]
CCCc1c(OCCCCCOc2cc3c(cc2C(C)=O)CCC(CCCCC(=O)O)O3)ccc(C(C)=O)c1O (racemic) [racemic-6-acetyl-7-[5-(4-acetyl-3-hydroxy-2-propylphenoxy)pentyloxy]-3,4-dihydro-2H-1-benzopyran-2-pentanoic acid]	46±14	–	–	–
CCCc1c(OCCCOc2c(C(C)=O)cc3c(c2CCC)OC(C)(CCC(=O)O)CC3)ccc(C(C)=O)c1O (racemic) [racemic-6-acetyl-7-[3-(4-acetyl-3-hydroxy-2-n-propylphenoxy)propoxy]-3,4-dihydro-2-methyl-8-n-propyl-2H-1-benzopyran-2-propanoic acid]	–	80	0.12	–
CCCc1c(OCCCOc2cc3c(cc2C(C)=O)CCC(C(=O)O)O3)ccc(C(C)=O)c1O (racemic) [racemic-6-acetyl-7-[3-(4-acetyl-3-hydroxy-2-propylphenoxy)propoxy]-3,4-dihydro-2H-2-benzopyran-2-carboxylic acid]	–	100	0.20	–
CCCc1c(OCCCOc2ccc3c(c2)CCC(C)(C(=O)O)O3)ccc(C(C)=O)c1O (racemic) [racemic-6-[3-(4-acetyl-3-hydroxy-2-propylphenoxy)propoxy]-3,4-dihydro-2-methyl-2H-1-benzopyran-2-carboxylic acid]	–	100	0.20	–
CCCc1c(OCCCCCOc2cc3c(cc2C(C)=O)CCC(C(=O)O)O3)ccc(C(C)=O)c1O (racemic) [racemic-6-acetyl-7-[5-(4-acetyl-3-hydroxy-2-propylphenoxy)pentyloxy]-3,4-dihydro-2H-1-benzopyran-2-carboxylic acid]	–	60	0.052	0.0056
CCCc1c(OCCCOc2c(C(C)=O)cc3c(c2CCC)OC(C(=O)O)CC3)ccc(C(C)=O)c1O (racemic) [racemic-6-acetyl-7-[3-(4-acetyl-3-hydroxy-2-propylphenoxy)propoxy]-3,4-dihydro-8-propyl-2H-1-benzopyran-2-carboxylic acid]	–	100	0.38	–
CCCc1c(OCCCOc2ccc3c(c2)OC(C)(CCC(=O)O)CC3)ccc(C(C)=O)c1O (racemic) [racemic-7-[3-(4-acetyl-3-hydroxy-2-propylphenoxy)propoxy]-3,4-dihydro-2-methyl-2H-1-benzopyran-2-propanoic acid]	–	100	> 1.0	–
CCCc1c(OCCCOc2c(C)c(C)c3c(c2C)CCC(C)(C(=O)O)O3)ccc(C(C)=O)c1O (racemic) [racemic-6-[3-(4-acetyl-3-hydroxy-2-propylphenoxy)propoxy]-3,4-dihydro-2,5,7,8-tetramethyl-2H-1-benzopyran-2-carboxylic acid]	–	100	1.0	–
CCCc1c(OCCCOc2ccc3c(c2)OC(C(=O)O)CC3)ccc(C(C)=O)c1O (racemic) [racemic-7-[3-(4-acetyl-3-hydroxy-2-propyl)phenoxy)propoxy]-3,4-dihydro-2H-1-benzopyran-2-carboxylic acid]	–	60	0.14	–
CCCc1c(OCCCCCOc2cc3c(cc2C(C)=O)CC[C@@H](C(=O)O)O3)ccc(C(C)=O)c1O [(S)-6-acetyl-7-[5-(4-acetyl-3-hydroxy-2-propylphenoxy)pentyloxy]-3,4-dihydro-2H-1-benzopyran-2-carboxylic acid]	–	60	–	0.0018
CCCc1c(OCCCCCCCOc2cc3c(cc2C(C)=O)CCC(C(=O)O)O3)ccc(C(C)=O)c1O (racemic) [racemic-6-acetyl-7-[7-(4-acetyl-3-hydroxy-2-propylphenoxy)heptyloxy]-3,4-dihydro-2H-1-benzopyran-2-carboxylic acid]	–	1000	1.0	–
CCCc1c(OCCCCCOc2cc3c(cc2C(C)=O)CC[C@H](C(=O)O)O3)ccc(C(C)=O)c1O [(R)-6-acetyl-7-[5-(4-acetyl-3-hydroxy-2-propylphenoxy)pentyloxy]-3,4-dihydro-2H-1-benzopyran-2-carboxylic acid]	–	100	–	0.018
CCCc1c(OCCCOc2ccc3c(c2CCC)OC(C)(CCC(=O)O)CC3)ccc(C(C)=O)c1O (racemic) [racemic-7-[3-(4-acetyl-3-hydroxy-2-n-propylphenoxy)propoxy]-3,4-dihydro-2-methyl-8-n-propyl-2H-1-benzopyran-2-propanoic acid]	–	500	0.71	–
CCCc1c(OCCCOc2c(C)c(C)c3c(c2C)CCC(C(=O)O)O3)ccc(C(C)=O)c1O (racemic) [racemic-6-[3-(4-acetyl-3-hydroxy-2-propylphenoxy)propoxy]-3,4-dihydro-5,7,8-trimethyl-2H-1-benzopyran-2-carboxylic acid]	–	100	1.0	–
